Laboratory results from the NIST ThermoML archive (doi:10.1016/j.jct.2003.11.012).

Key:
[1] = molar heat capacity at saturation pressure
[2] = for vapor or sublimation pressure: Liquid; for Triple point temperature: Adiabatic calorimetry

C1CCC(SC2CCCCC2)CC1 [dicyclohexyl sulfide]
[1]
Settings	molar heat capacity [J/K/mol]
117.01 K, Crystal 2, Vacuum adiabatic calorimetry	121.51
120 K, Crystal 2	123.79
126.84 K, Crystal 2, Vacuum adiabatic calorimetry	128.96
136.8 K, Crystal 2, Vacuum adiabatic calorimetry	136.33
140 K, Crystal 2	138.69
146.83 K, Crystal 2, Vacuum adiabatic calorimetry	143.7
156.79 K, Crystal 2, Vacuum adiabatic calorimetry	151.02
160 K, Crystal 2	153.38
167.83 K, Crystal 2, Vacuum adiabatic calorimetry	159.16
179.9 K, Crystal 2, Vacuum adiabatic calorimetry	168.19
180 K, Crystal 2	168.28
192 K, Crystal 2, Vacuum adiabatic calorimetry	177.65
200 K, Crystal 2	184.16
204.1 K, Crystal 2, Vacuum adiabatic calorimetry	187.6
212.64 K, Crystal 2, Vacuum adiabatic calorimetry	194.77
216.18 K, Crystal 2, Vacuum adiabatic calorimetry	197.93
220 K, Crystal 2	201.6
223.24 K, Crystal 2, Vacuum adiabatic calorimetry	204.46
227.23 K, Crystal 2, Vacuum adiabatic calorimetry	208.11
229.69 K, Crystal 2, Vacuum adiabatic calorimetry	210.53
233.56 K, Crystal 2, Vacuum adiabatic calorimetry	214.23
239.46 K, Crystal 2, Vacuum adiabatic calorimetry	220.49
240 K, Crystal 2	221.21
243.62 K, Crystal 2, Vacuum adiabatic calorimetry	224.96
245.76 K, Crystal 2, Vacuum adiabatic calorimetry	227.13
249.49 K, Crystal 2, Vacuum adiabatic calorimetry	232.29
250 K, Crystal 2	231.72
252.11 K, Crystal 2, Vacuum adiabatic calorimetry	235.33
255.1 K, Crystal 2, Vacuum adiabatic calorimetry	241.32
255.37 K, Crystal 2, Vacuum adiabatic calorimetry	242.85
256.11 K, Crystal 2, Vacuum adiabatic calorimetry	244.36
258.04 K, Crystal 2, Vacuum adiabatic calorimetry	251.78
258.75 K, Crystal 2, Vacuum adiabatic calorimetry	257.57
260 K, Crystal 2	264.46
264.7 K, Crystal 1	315.22
264.7 K, Crystal 2	316.1
267.11 K, Crystal 1, Vacuum adiabatic calorimetry	316.81
270 K, Crystal 1	318.74
270.5 K, Crystal 1, Vacuum adiabatic calorimetry	319.58
270.99 K, Crystal 1, Vacuum adiabatic calorimetry	319.82
272.57 K, Crystal 1, Vacuum adiabatic calorimetry	320.97
274.72 K, Crystal 1, Vacuum adiabatic calorimetry	322.6
275.18 K, Crystal 1, Vacuum adiabatic calorimetry	322.61
276.68 K, Crystal 1, Vacuum adiabatic calorimetry	324.34
277.72 K, Crystal 1, Vacuum adiabatic calorimetry	325.42
278.97 K, Crystal 1, Vacuum adiabatic calorimetry	327.22
280 K, Crystal 1	325.48
284.2 K, Crystal 1	328.37
284.2 K, Liquid	317.32
298.15 K, Liquid	326.14
300 K, Liquid	327.33
320 K, Liquid	340.79
340 K, Liquid	354.76
360 K, Liquid	369.3
380 K, Liquid	384.16
400 K, Liquid	399.24
420 K, Liquid	414.4
440 K, Liquid	429.57

[1], Liquid, Vacuum adiabatic calorimetry
Settings	molar heat capacity [J/K/mol]
287.6 K	319.48
289.37 K	320.58
290.6 K	321.35
296.18 K	324.86
296.81 K	325.28
307.92 K	332.58
321.65 K	341.93
336.79 K	352.46
352.3 K	363.66
367.76 K	375.02
383 K	386.42
398.09 K	397.79
413.1 K	409.16
428.06 K	420.5
439.99 K	429.5

[2]
Settings	Triple point temperature [K]	vapor or sublimation pressure [kPa]
334.98 K	–	0.0195
344.99 K	–	0.0387
354.98 K	–	0.073
364.98 K	–	0.1323
374.98 K	–	0.2307
384.97 K	–	0.3883
394.98 K	–	0.6338
404.98 K	–	1.004
414.96 K	–	1.546
419.97 K	–	1.902
424.96 K	–	2.324
429.96 K	–	2.825
Crystal 1	284.2	–
Crystal 2	264.7	–
Crystal 3	41.35	–
